Reference: patent publication US8957093B2, “N-biphenylmethylindole modulators of PPARG” (The Scripps Research Institute, priority 2011, dated 2015)

Target: GST-PPARG-LBD (Homo sapiens (Human), UniProt P37231)
Assay: Lanthascreen PPARG competitive binding assay (Invitrogen, TR-FRET)
Details: Lanthascreen PPARG competitive binding; inc = incomplete curve; NA = not active
Procedure: Lanthascreen PPARG Competitive Binding Assay (Invitrogen)
The assay was performed according to manufacturer protocol. A mixture of […], 5 nM Tb-GST-antibody, 5 nM Fluormone Pan-PPAR Green, and serial dilutions of the experimental compound, beginning at 10 μM downwards, was added to wells of black 384-well low-volume plates (Greiner) to a total volume of 18 μL. All dilutions were made in TR-FRET assay buffer C. DMSO at 2% final concentration was used as a no-ligand control. Experiment was performed in triplicate, and incubated for 2 hours in the dark prior to assay read in Perkin Elmer ViewLux ultra HTS microplate reader. FRET signal was measured by excitation at 340 nm and emission at 520 nm for fluorescein and 490 nm for terbium. Fold change over DMSO was calculated using GraphPad Prism Software (La Jolla, Calif.) by calculating 520 nm/490 nm ratio. Graphs were plotted as fold change of FRET signal for compound treatment over DMSO-only control.

Chain of GST-PPARG-LBD (P37231 238-503): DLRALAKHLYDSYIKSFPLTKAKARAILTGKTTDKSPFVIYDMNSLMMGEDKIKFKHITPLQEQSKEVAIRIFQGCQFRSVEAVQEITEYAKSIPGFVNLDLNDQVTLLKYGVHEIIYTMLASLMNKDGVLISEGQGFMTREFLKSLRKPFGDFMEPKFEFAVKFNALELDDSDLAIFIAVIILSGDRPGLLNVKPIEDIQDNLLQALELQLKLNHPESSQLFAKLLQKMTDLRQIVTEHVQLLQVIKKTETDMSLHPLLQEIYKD

Structure (SMILES): Cc1c(C)n(Cc2ccc(-c3ccccc3C#N)cc2)c2ccc(C(=O)N[C@@H](C)c3cccc(C(F)(F)F)c3)cc12 [Example 282, (S)-1-((2′-cyano-[1,1′-biphenyl]-4-yl)methyl)-2,3-dimethyl-N-(1-(3-(trifluoromethyl)phenyl)ethyl)-1H-indole-5-carboxamide]
- IC50 (nM) Lantha: inc

Structure (SMILES): Cc1c(C)n(Cc2ccc(-c3ccccc3C#N)cc2)c2ccc(C(=O)N[C@@H](C)c3ccc(Cl)cc3)cc12 [Example 283, (S)—N-(1-(4-chlorophenyl)ethyl)-1-((2′-cyano-[1,1′-biphenyl]-4-yl)methyl)-2,3-dimethyl-1H-indole-5-carboxamide]
- IC50 (nM) Lantha: inc

Structure (SMILES): Cc1c(C)n(Cc2ccc(-c3ccccc3C#N)cc2)c2ccc(C(=O)N[C@@H](C)c3cccc(Br)c3)cc12 [Example 284, (S)—N-(1-(3-bromophenyl)ethyl)-1-((2′-cyano-[1,1′-biphenyl]-4-yl)methyl)-2,3-dimethyl-1H-indole-5-carboxamide]
- IC50 (nM) Lantha: inc

Structure (SMILES): COc1ccc([C@H](C)NC(=O)c2ccc3c(c2)c(C)c(C)n3Cc2ccc(-c3ccccc3C#N)cc2)cc1 [Example 285, (S)-1-((2′-cyano-[1,1′-biphenyl]-4-yl)methyl)-N-(1-(4-methoxyphenyl)ethyl)-2,3-dimethyl-1H-indole-5-carboxamide]
- IC50 (nM) Lantha: inc

Structure (SMILES): Cc1c(C)n(Cc2ccc(-c3ccccc3C#N)cc2)c2ccc(C(=O)N[C@@H](C)c3ccc(F)cc3F)cc12 [Example 286, (S)-1-((2′-cyano-[1,1′-biphenyl]-4-yl)methyl)-N-(1-(2,4-difluorophenyl)ethyl)-2,3-dimethyl-1H-indole-5-carboxamide]
- IC50 (nM) Lantha: inc

Structure (SMILES): Cc1c(C)n(Cc2ccc(-c3ccccc3C#N)cc2)c2ccc(C(=O)N[C@@H](C)c3ccccc3Cl)cc12 [Example 287, (S)—N-(1-(2-chlorophenyl)ethyl)-1-((2′-cyano-[1,1′-biphenyl]-4-yl)methyl)-2,3-dimethyl-1H-indole-5-carboxamide]
- IC50 (nM) Lantha: inc

Structure (SMILES): Cc1ccc([C@H](C)NC(=O)c2ccc3c(c2)c(C)c(C)n3Cc2ccc(-c3ccccc3C#N)cc2)cc1 [Example 288, (S)-1-((2′-cyano-[1,1′-biphenyl]-4-yl)methyl)-2,3-dimethyl-N-(1-(p-tolyl)ethyl)-1H-indole-5-carboxamide]
- IC50 (nM) Lantha: inc

Structure (SMILES): CCc1ccc([C@H](C)NC(=O)c2ccc3c(c2)c(C)c(C)n3Cc2ccc(-c3ccccc3C#N)cc2)cc1 [Example 289, (S)-1-((2′-cyano-[1,1′-biphenyl]-4-yl)methyl)-N-(1-(4-ethylphenyl)ethyl)-2,3-dimethyl-1H-indole-5-carboxamide]
- IC50 (nM) Lantha: inc

Structure (SMILES): Cc1c(C)n(Cc2ccc(-c3ccccc3C#N)cc2)c2ccc(C(=O)N[C@@H](C)c3ccc(Cl)c(Cl)c3)cc12 [Example 290, (S)-1-((2′-cyano-[1,1′-biphenyl]-4-yl)methyl)-N-(1-(3,4-dichlorophenyl)ethyl)-2,3-dimethyl-1H-indole-5-carboxamide]
- IC50 (nM) Lantha: inc

Structure (SMILES): Cc1c(C)n(Cc2ccc(-c3ccccc3C#N)cc2)c2ccc(C(=O)N[C@@H](C)c3ccccc3)cc12 [Example 291, (S)-1-((2′-cyano-[1,1′-biphenyl]-4-yl)methyl)-2,3-dimethyl-N-(1-phenylethyl)-1H-indole-5-carboxamide]
- IC50 (nM) Lantha: inc

Structure (SMILES): COc1ccccc1[C@H](C)NC(=O)c1ccc2c(c1)c(C)c(C)n2Cc1ccc(-c2ccccc2C#N)cc1 [Example 292, (S)-1-((2′-cyano-[1,1′-biphenyl]-4-yl)methyl)-N-(1-(2-methoxyphenyl)ethyl)-2,3-dimethyl-1H-indole-5-carboxamide]
- IC50 (nM) Lantha: inc

Structure (SMILES): Cc1c(C)n(Cc2ccc(-c3ccccc3C#N)cc2)c2ccc(C(=O)N[C@@H](C)c3cccc(F)c3)cc12 [Example 293, (S)-1-((2′-cyano-[1,1′-biphenyl]-4-yl)methyl)-N-(1-(3-fluorophenyl)ethyl)-2,3-dimethyl-1H-indole-5-carboxamide]
- IC50 (nM) Lantha: inc
